From patent US10314883B2, “Compositions and methods for regulating blood pressure” (University of Virginia Patent Foundation, priority 2015, dated 2019)

What was measured:
[1] = system: thoracodorsal arteries (TDA); assay: Pressure myography: agonist-induced constriction of pressurized TDAs from C57Bl/6 mice with pannexin inhibitors or Panx1 mimetic peptides; assay type: cell-based, mouse; details: for effect on phenylephrine-induced constriction of pressurized TDAs: TAT-linked peptides
Protocol: The contractile responses of pressurized thoracodorsal arteries (TDA) were measured as previously described. Briefly, TDA were isolated and placed in cold Krebs-HEPES until cannulation in a pressure arteriograph (Danish MyoTechnology). After a 30 minute equilibration period, cumulative concentrations of contractile agonists were applied to the TDA pressurized at 80 mmHg, and the vessel was visualized with an Olympus IX-71 microscope attached to a Hamamatsu EM-CCD camera coupled to Slidebook imaging software. […] Lastly, maximal diameter was measured at the end of each experiment in calcium-free Krebs-HEPES supplemented with EGTA (1 mmol/L) and sodium nitroprusside (10 μmol/L). In cases where the vessels were not constricting to the contractile agonist, their viability was assessed by applying 40 mM KCl and only TDA reaching 30% of the maximal diameter were considered for analysis. The contractile responses, as well as the basal tone, are expressed as a percentage of the maximal diameter.
Using pressure arteriography on TDA dissected from C57Bl/6 mice (as described; and aortic ring contraction, as described), we measured the effect of pannexin inhibitors, probenecid and 10Panx1, on the contractile response upon stimulation with different vasoconstrictors: phenylephrine (FIG. 1A), noradrenaline (also called norepinephrine) (FIG. 1B), serotonin (also known as 5-HT) (FIG. 1C) and endothelin-1 (FIG. 1D). […] In contrast, ^10Panx1 and probenecid had no effect on contraction of TDA measured in response to cumulative concentrations of serotonin or endothelin-1 (FIGS. 1C-D; Table 1).
To determine the region of Panx1 necessary for channel activation in response to α1AR stimulation, we produced short peptides derived from the intracellular regions of the Panx1 channel. We generated two peptides mimicking unique mouse Panx1 (mPanx1) sequences in the first intracellular loop (IL1 and IL2) and two peptides mimicking unique mPanx1 sequences in the C-terminal region, one in second intracellular loop (CT1) and one in the C-terminal tail (CT2) (FIG. 4A scissors indicate caspase 3 cleavage site; Table 3). All peptides also contained a TAT sequence to facilitate entry into cells and we verified the intracellular localization of each peptide by immunofluorescence detection of the TAT sequence in TDAs pre-incubated with each peptide (FIG. 7A). We tested the effect of each peptide on phenylephrine-induced contractile responses in pressurized TDAs from C57Bl/6 mice (FIGS. 4B-E). […] Note that these differences in effects of phenylephrine were similar in magnitude to those observed in arteries from SMC-specific Panx1-knockout mice and littermate controls (FIG. 2C, Table 2).

C57Bl/6 mice = assay: Blood pressure by radiotelemetry after peptide injection; assay type: in vivo, mouse; details: conscious C57Bl/6 mice, acute intraperitoneal injection, within 1.5 hours; 5 mg/kg or 20 mg/kg
Protocol: Blood pressure was measured using radiotelemetry units (Data Sciences International, DSI) implanted in C57Bl/6, Cre^−/Panx1^F1, Cre^−/Panx1^WT, Cre^+/Panx1^WT, and Cre^+/Panx1^F1 mice. The catheter of a radiotelemetry unit (TA11PA-C10, DSI) was implanted in the mouse left carotid artery under isoflurane anesthesia, and the catheter was tunneled trough the radiotransmitter placed in a subcutaneous pouch along the right flank of the mouse, as previously described. After implantation, mice were allowed to recover for seven days.
[…] Blood pressure was recorded for another 1.5 hours, and the mean arterial pressure data from 1 to 1.5 hours post injection was averaged and compared to the basal blood pressure. The ΔMAP was calculated by subtracting the average mean arterial pressure measured for 30 minutes prior to injection to the mean arterial pressure measured for 30 minutes one hour post injection. […]
Based on the central role of α1AR signaling in blood pressure homeostasis, we evaluated the effect of Panx1 deletion on systemic blood pressure. Blood pressure was measured using radiotelemetry units as previously described by us. Blood pressure was measured on the conditional KO mouse model for five days before proceeding to tamoxifen injections, and for another five days 24 hours after the last tamoxifen injection. […]

[2] = in presence of the named peptide

## KYPIVEQYLKYGRKKQRRR [IL2]
[1]; C57Bl/6 TDAs
  effect on noradrenaline-induced constriction: inhibited
  effect on phenylephrine-induced constriction of pressurized TDAs: significantly decreased
[1]; [2]
  EMAX of endothelin-1 for TDA constriction: 41.9 ± 3.73 percentage of maximal diameter
  EMAX of noradrenaline for TDA constriction: 53.4 ± 7.00 percentage of maximal diameter
  EMAX of phenylephrine for TDA constriction: 68.6 ± 5.11 percentage of maximal diameter
  EMAX of serotonin for TDA constriction: 36.7 ± 3.52 percentage of maximal diameter
C57Bl/6 mice
  reduction of mean arterial blood pressure: 13.0±3.3 mmHg

## scrambled intracellular loop 2 IYLYVEQKPY (SEQ ID NO: 7) linked with a TAT sequence [Scrambled IL2]
[1]; C57Bl/6 TDAs
  effect on phenylephrine-induced constriction of pressurized TDAs: no significant effect
[1]; [2]
  EMAX of phenylephrine for TDA constriction: 47.5 ± 2.17 percentage of maximal diameter
C57Bl/6 mice
  reduction of mean arterial blood pressure: no significant effect
